Data set [1] can be described thus: Drug excretion in iv dosed bile-cannulated rat bile assessed as parent compound level after 4 hrs. In kind it is ADME, organism-based. To be noted: read-out: Ae.
Data set [2] is described as follows: Clearance in dog at 1 mg/kg, iv and 4 mg/kg, po. In kind it is ADME, organism-based, Canis lupus familiaris. Conditions: in vivo.
Data set [3] deals with Hepatitis C virus. The experiment in a line: Antiviral activity against HCV genotype 1b infected in human Huh cells expressing luc gene by replicon assay. The class given is functional, organism-based, Hepacivirus hominis.
The subject of data set [4] is Hepatitis C virus. Nature of the data set: Inhibition of HCV1b NS3/4A protease. Also noted: species or system Hepatitis C virus subtype 1b. Conditions: Hepatitis C virus.
The next data set concerns Canis familiaris. The experiment in a line: AUC in dog at 1 mg/kg, iv and 4 mg/kg, po. The class given is ADME, organism-based, Canis lupus familiaris, Plasma. Conditions: in vivo.
The nature of data set [5]: Half life in dog at 1 mg/kg, iv. To be noted: in vivo. The class given is ADME, organism-based, Canis lupus familiaris. Also noted: dose 1 mg/kg, route intravenous.
Data set [6] can be described thus: Volume of distribution at steady state in dog at 1 mg/kg, iv and 4 mg/kg, po. To be noted: in vivo, read-out: Vdss. In kind it is ADME, organism-based, Canis lupus familiaris.
Data set [7] can be described thus: Permeability from basolateral to apical side in human Caco2 cells. In kind it is ADME, cell-based. To be noted: Caco-2, read-out: permeability.
Data set [8] is described as follows: Permeability from apical to basolateral side in human Caco2 cells. In kind it is ADME, cell-based. Conditions: Caco-2, read-out: permeability.
Data set [9] can be described thus: Dissociation constant, pKa of the compound. In kind it is physicochemical.
Data set [10] in a line: Oral bioavailability in dog at 4 mg/kg. To be noted: in vivo. In kind it is ADME, organism-based, Canis lupus familiaris.

Structures are written as SMILES.

For `C=C[C@@H]1C[C@]1(NC(=O)[C@@H]1C[C@@H](Oc2cc(-c3csc(NC(C)C)n3)nc3cc(OC)ccc23)CN1C(=O)[C@@H](NC(=O)OC1CCCC1)C(C)(C)C)P(=O)(O)Cc1c(F)cccc1F`, the dose excreted at 4 h in data set [1] is over 90%. Moreover, in [2], the clearance was 6.17 mL/min/kg. Moreover, in the data set with Hepatitis C virus [3], the EC50 is 74 nM. Besides, half-maximal inhibition in the data set on Hepatitis C virus [4] (IC50) was put at 4 nM. The same compound displayed an area under the curve (AUC) with Canis familiaris of 3.12 µM·h. The half-life in data set [5] was 1.6 h. In data set [6], the Vd is 0.31 L/kg. Besides, the Papp B→A in data set [7] was 10.6 ×10⁻⁶ cm/s. In data set [8], the Papp A→B turned out to be 1.22 ×10⁻⁶ cm/s. Moreover, in data set [9], the pKa was 2.7. In data set [10], this compound gave a bioavailability of 8%.
